Measurements: patent publication US9695133B2, “Quinazolinone-based oncogenic-RAS-selective lethal compounds and their use” (THE TRUSTEES OF COLUMBIA UNIVERSITY IN THE CITY OF NEW YORK, priority 2012, dated 2017)

System: HT-1080 cells
Assay: Metabolite profiling (LC-MS/MS) upon erastin treatment
Assay type: cell-based, human
Conditions: 5 μg/mL erastin 5 h
Method: 2 million HT-1080 cells were seeded in 10 cm culture dishes. […] 4 mL of cold 80% methanol was added to the cell monolayer to extract polar metabolites using a cell scraper. The cell lysate/methanol mixture was transferred to a 15 mL tube and centrifuged at 2,000×g at 4° C. for 10 minutes to pellet debris and proteins. The supernatant was transferred to a new tube and stored at −80° C. for liquid chromatography-mass spectrometry/mass spectrometry (LC-MS/MS) analysis. For lipid extract preparation, 3 mL of cold 100% isopropanol was added to the cell monolayer to scrape out cells. The resulting cell lysate/isopropanol mixture was transferred to a new 15 mL tube and centrifuged at 2,000×g at 4° C. for 10 minutes. The cleared supernatant was transferred to a new tube and stored at −20° C. for LC-MS/MS analysis.
The metabolite extract was subjected to LC-MS/MS analysis to determine the quantity of each metabolite in each sample.

CCOc1ccccc1-n1c(C(C)N2CCN(C(=O)COc3ccc(Cl)cc3)CC2)nc2ccccc2c1=O (stereo not drawn) [erastin]
2-aminodipate Erastin/DMSO: 0.6644 | 2-aminodipate log2 (Erastin/DMSO): −0.59 | 2′-deoxyadenosine Erastin/DMSO: 0.6549 | 2′-deoxyadenosine log2 (Erastin/DMSO): −0.6107 | 2′-deoxycytidine Erastin/DMSO: 1.737 | 2′-deoxycytidine log2 (Erastin/DMSO): 0.7968 | 4-hydroxybenzoate Erastin/DMSO: 0.9815 | 4-hydroxybenzoate log2 (Erastin/DMSO): −0.02693 | 4-pyridoxate Erastin/DMSO: 1 | 4-pyridoxate log2 (Erastin/DMSO): 0.0001853 | 5-HIAA (first entry) Erastin/DMSO: 0.7283 | 5-HIAA (first entry) log2 (Erastin/DMSO): −0.4574 | 5-HIAA (second entry) Erastin/DMSO: 1.231 | 5-HIAA (second entry) log2 (Erastin/DMSO): 0.2997 | 5-hydroxytryptophan Erastin/DMSO: 0.8725 | 5-hydroxytryptophan log2 (Erastin/DMSO): −0.1967 | ADMA Erastin/DMSO: 0.8585 | ADMA log2 (Erastin/DMSO): −0.2201 | ADMA/SDMA Erastin/DMSO: 0.8985 | ADMA/SDMA log2 (Erastin/DMSO): −0.1543 | ADP Erastin/DMSO: 0.9616 | ADP log2 (Erastin/DMSO): −0.05643 | AMP Erastin/DMSO: 1.071 | AMP log2 (Erastin/DMSO): 0.09933 | Anthranilic acid Erastin/DMSO: 1.242 | Anthranilic acid log2 (Erastin/DMSO): 0.3128 | C14:0 CE Erastin/DMSO: 0.7897 | C14:0 CE log2 (Erastin/DMSO): −0.3407 | C14:0 LPC Erastin/DMSO: 3.625 | C14:0 LPC log2 (Erastin/DMSO): 1.858 | C14:0 SM Erastin/DMSO: 1.062 | C14:0 SM log2 (Erastin/DMSO): 0.08617 | C16:0 CE Erastin/DMSO: 0.9643 | C16:0 CE log2 (Erastin/DMSO): −0.05248 | C16:0 LPC Erastin/DMSO: 3.818 | C16:0 LPC log2 (Erastin/DMSO): 1.933 | C16:0 SM Erastin/DMSO: 1.03 | C16:0 SM log2 (Erastin/DMSO): 0.04281 | C16:1 CE Erastin/DMSO: 0.9321 | C16:1 CE log2 (Erastin/DMSO): −0.1015 | C16:1 LPC Erastin/DMSO: 5.386 | C16:1 LPC log2 (Erastin/DMSO): 2.429 | C16:1 SM Erastin/DMSO: 0.9808 | C16:1 SM log2 (Erastin/DMSO): −0.02798 | C18:0 CE Erastin/DMSO: 1.01 | C18:0 CE log2 (Erastin/DMSO): 0.01367 | C18:0 LPC Erastin/DMSO: 3.335 | C18:0 LPC log2 (Erastin/DMSO): 1.738 | C18:0 SM Erastin/DMSO: 1.018 | C18:0 SM log2 (Erastin/DMSO): 0.02559 | C18:1 CE Erastin/DMSO: 0.9198 | C18:1 CE log2 (Erastin/DMSO): −0.1206 | C18:1 LPC Erastin/DMSO: 3.744 | C18:1 LPC log2 (Erastin/DMSO): 1.904 | C18:1 SM Erastin/DMSO: 0.925 | C18:1 SM log2 (Erastin/DMSO): −0.1125 | C18:2 CE Erastin/DMSO: 0.9483 | C18:2 CE log2 (Erastin/DMSO): −0.07651 | C18:3 CE Erastin/DMSO: 0.9277 | C18:3 CE log2 (Erastin/DMSO): −0.1083 | C20:3 CE Erastin/DMSO: 0.7864 | C20:3 CE log2 (Erastin/DMSO): −0.3467 | C20:4 CE Erastin/DMSO: 0.9141 | C20:4 CE log2 (Erastin/DMSO): −0.1297 | C20:4 LPC Erastin/DMSO: 8.518 | C20:4 LPC log2 (Erastin/DMSO): 3.091 | C20:5 CE Erastin/DMSO: 0.8407 | C20:5 CE log2 (Erastin/DMSO): −0.2504 | C22:0 SM Erastin/DMSO: 0.96 | C22:0 SM log2 (Erastin/DMSO): −0.0589 | C22:1 SM Erastin/DMSO: 0.8374 | C22:1 SM log2 (Erastin/DMSO): −0.256 | C22:6 CE Erastin/DMSO: 0.7847 | C22:6 CE log2 (Erastin/DMSO): −0.3498 | C22:6 LPC Erastin/DMSO: 8.456 | C22:6 LPC log2 (Erastin/DMSO): 3.08 | C24:0 SM Erastin/DMSO: 0.9621 | C24:0 SM log2 (Erastin/DMSO): −0.05567 | C24:1 SM Erastin/DMSO: 0.8933 | C24:1 SM log2 (Erastin/DMSO): −0.1627 | C30:0 PC Erastin/DMSO: 0.8954 | C30:0 PC log2 (Erastin/DMSO): −0.1594 | C30:1 PC Erastin/DMSO: 1.014 | C30:1 PC log2 (Erastin/DMSO): 0.01988 | C30:2 PC Erastin/DMSO: 0.9467 | C30:2 PC log2 (Erastin/DMSO): −0.07901 | C32:0 PC Erastin/DMSO: 0.7948 | C32:0 PC log2 (Erastin/DMSO): −0.3314 | C32:0 PE Erastin/DMSO: 0.9821 | C32:0 PE log2 (Erastin/DMSO): −0.0261 | C32:1 DAG Erastin/DMSO: 1.055 | C32:1 DAG log2 (Erastin/DMSO): 0.07658 | C32:1 PC Erastin/DMSO: 0.9998 | C32:1 PC log2 (Erastin/DMSO): −0.0003379 | C32:1 PE Erastin/DMSO: 1.024 | C32:1 PE log2 (Erastin/DMSO): 0.03411 | C32:1 PI Erastin/DMSO: 1.261 | C32:1 PI log2 (Erastin/DMSO): 0.3346 | C32:2 PC Erastin/DMSO: 1.218 | C32:2 PC log2 (Erastin/DMSO): 0.2847 | C32:2 PE Erastin/DMSO: 1.018 | C32:2 PE log2 (Erastin/DMSO): 0.02554 | C34:0 PC Erastin/DMSO: 0.7975 | C34:0 PC log2 (Erastin/DMSO): −0.3264 | C34:0 PE Erastin/DMSO: 0.9533 | C34:0 PE log2 (Erastin/DMSO): −0.06907 | C34:1 DAG Erastin/DMSO: 0.8823 | C34:1 DAG log2 (Erastin/DMSO): −0.1807 | C34:1 PC Erastin/DMSO: 0.8993 | C34:1 PC log2 (Erastin/DMSO): −0.1531 | C34:1 PE Erastin/DMSO: 1.04 | C34:1 PE log2 (Erastin/DMSO): 0.05679 | C34:1 PI Erastin/DMSO: 1.173 | C34:1 PI log2 (Erastin/DMSO): 0.2306 | C34:2 DAG Erastin/DMSO: 1.089 | C34:2 DAG log2 (Erastin/DMSO): 0.1227 | C34:2 PC Erastin/DMSO: 1.049 | C34:2 PC log2 (Erastin/DMSO): 0.06833 | C34:2 PE Erastin/DMSO: 0.982 | C34:2 PE log2 (Erastin/DMSO): −0.02619 | C34:2 PI Erastin/DMSO: 1.286 | C34:2 PI log2 (Erastin/DMSO): 0.3633 | C34:3 PC Erastin/DMSO: 1.134 | C34:3 PC log2 (Erastin/DMSO): 0.1814 | C34:4 PC Erastin/DMSO: 1.086 | C34:4 PC log2 (Erastin/DMSO): 0.119 | C36:0 PC Erastin/DMSO: 0.6501 | C36:0 PC log2 (Erastin/DMSO): −0.6212 | C36:0 PE Erastin/DMSO: 0.9538 | C36:0 PE log2 (Erastin/DMSO): −0.06821 | C36:0 PI Erastin/DMSO: 1.006 | C36:0 PI log2 (Erastin/DMSO): 0.009131
